Marks after values point to notes of the source that are not given here.
Experiments:
Format in all cases: in vivo
Kunming mice [1] = assay: Influence on autonomic activity of normal mice (ZIL-2 mice autonomic activity meter, counts within 10 min); details: intragastric, x ± s, n = 10; for Times of activities in 1 h after drug administration/10 min: 1 h after administration; for Times of activities in 2 h after drug administration/10 min: 2 h after administration; for Times of activities in 24 h after drug administration/10 min: 24 h after administration
How it was run: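 Activity counts during a 10-min window were taken at 1, 2 and 24 h after dosing in groups of 10 mixed-sex Kunming mice. Compounds were given in 0.5% CMC-Na at 25, 50 or 100 mg/kg. Statistics used Levene's homogeneity test, ANOVA and Dunnett's multiple comparisons.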

Kunming mice [2] = assay: Influence on hypnosis effect with pentobarbital sodium doses below the threshold (25 mg/kg i.p.); details: pentobarbital sodium 25 mg/kg i.p. 60 min later, sleep observed in 30 min, n = 10
How it was run: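 Percentage of mice sleeping within 30 min after subthreshold pentobarbital sodium (25 mg/kg i.p.), defined by loss of righting reflex over 1 min, analysed by χ2. Compound in 0.5% CMC-Na given intragastrically at 25/50/100 mg/kg 60 min before; groups of 10 Kunming mice, both sexes.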

Kunming mice [3] = assay: Influence on hypnosis effect with pentobarbital sodium doses at the threshold (50 mg/kg i.p.); details: pentobarbital sodium 50 mg/kg i.p. 60 min later, x ± s, n = 10
How it was run: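 Pentobarbital sodium (0.3%, 50 mg/kg i.p.) injected 60 min after a single intragastric dose (25, 50, 100 mg/kg, 0.5% CMC-Na vehicle) in Kunming mice, 10 per group, sexes balanced. Onset and length of sleep (righting reflex lost over 1 min) analysed by ANOVA; sleeping incidence by χ2 test.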

[4] = test drug 25 mg/kg intragastric single dose
[5] = test drug 50 mg/kg intragastric single dose
[6] = test drug 100 mg/kg intragastric single dose
[7] = 25 mg/kg intragastric single dose
[8] = 50 mg/kg intragastric single dose
[9] = 100 mg/kg intragastric single dose

**Q.** `COc1cc(OC)c2c(=O)cc(-c3cc(OC)c(OC)c(OC)c3)oc2c1` [Example 1, 5,7,3′,4′,5′-penta methoxyl-flavone] was tested. Which “Times of activities in 1 h after drug administration/10 min” value (from here on “Times of activities in 1 h”) (Kunming mice [1]; 25 mg/kg) did it give?
**A.** 215.3 ± 40.1 /10 min

**Q.** What about the “Times of activities in 2 h after drug administration/10 min” value (shortened to “Times of activities in 2 h”) (Kunming mice [1]; 25 mg/kg) of the same compound?
**A.** 211.2 ± 36.3 /10 min

**Q.** What about the “Times of activities in 24 h after drug administration/10 min” value (“Times of activities in 24 h” below) (Kunming mice [1]; 25 mg/kg) of the same compound?
**A.** 274.4 ± 81.2 /10 min

**Q.** And the “Times of activities in 1 h” value (Kunming mice [1]; 50 mg/kg)?
**A.** 137.1 ± 52.3 /10 min

**Q.** What about the “Times of activities in 2 h” value (Kunming mice [1]; 50 mg/kg) of the same compound?
**A.** 168.5 ± 57.9 /10 min

**Q.** What about the “Times of activities in 24 h” value (Kunming mice [1]; 50 mg/kg) of the same compound?
**A.** 275.2 ± 79.3 /10 min

**Q.** What about the “Times of activities in 1 h” value (Kunming mice [1]; 100 mg/kg) of the same compound?
**A.** 98.2 ± 41.9 /10 min

**Q.** What about the “Times of activities in 2 h” value (Kunming mice [1]; 100 mg/kg) of the same compound?
**A.** 96.2 ± 55.7 /10 min

**Q.** And the “Times of activities in 24 h” value (Kunming mice [1]; 100 mg/kg)?
**A.** 301.2 ± 80.7 /10 min

**Q.** What about the “Number of sleeping animals” value (Kunming mice [2]; [4]) of the same compound?
**A.** 5

**Q.** What about the “rate of sleeping (%)” value (Kunming mice [2]; [4]) of the same compound?
**A.** 50** %

**Q.** What about the “Number of sleeping animals” value (Kunming mice [2]; [5]) of the same compound?
**A.** 7

**Q.** And the “rate of sleeping (%)” value (Kunming mice [2]; [5])?
**A.** 70** %

**Q.** And the Number of sleeping animals (Kunming mice [2]; [6])?
**A.** 10

**Q.** And the “rate of sleeping (%)” value (Kunming mice [2]; [6])?
**A.** 100*** %

**Q.** And the duration of sleep (Kunming mice [3]; [7])?
**A.** 65.42 ± 27.30 min

**Q.** What about the time to sleep (Kunming mice [3]; [7]) of the same compound?
**A.** 3.84 ± 1.65 min

**Q.** What about the duration of sleep (Kunming mice [3]; [8]) of the same compound?
**A.** 78.60 ± 14.67 min

**Q.** And the time to sleep (Kunming mice [3]; [8])?
**A.** 3.54 ± 1.44 min

**Q.** What about the duration of sleep (Kunming mice [3]; [9]) of the same compound?
**A.** 98.33 ± 21.63 min

**Q.** And the time to sleep (Kunming mice [3]; [9])?
**A.** 2.75 ± 1.62 min

**Q.** What does the source list for `COc1ccc(-c2cc(=O)c3c(OC)c(OC)c(OC)c(OC)c3o2)cc1` [Example 8, 5,6,7,8,4′-penta methoxyl-flavone]?
**A.** Times of activities in 1 h after drug administration/10 min (Kunming mice [1]; 25 mg/kg): 301.3 ± 43.5 /10 min; Times of activities in 2 h after drug administration/10 min (Kunming mice [1]; 25 mg/kg): 290.2 ± 39.6 /10 min; Times of activities in 24 h after drug administration/10 min (Kunming mice [1]; 25 mg/kg): 286.4 ± 75.2 /10 min; Times of activities in 1 h after drug administration/10 min (Kunming mice [1]; 50 mg/kg): 262.1 ± 55.5 /10 min; Times of activities in 2 h after drug administration/10 min (Kunming mice [1]; 50 mg/kg): 244.7 ± 53.9 /10 min; Times of activities in 24 h after drug administration/10 min (Kunming mice [1]; 50 mg/kg): 299.8 ± 76.4 /10 min; Times of activities in 1 h after drug administration/10 min (Kunming mice [1]; 100 mg/kg): 185.7 ± 41.6 /10 min; Times of activities in 2 h after drug administration/10 min (Kunming mice [1]; 100 mg/kg): 167.2 ± 48.5 /10 min; Times of activities in 24 h after drug administration/10 min (Kunming mice [1]; 100 mg/kg): 280.4 ± 84.2 /10 min; Number of sleeping animals (Kunming mice [2]; [4]): 5; rate of sleeping (%) (Kunming mice [2]; [4]): 50** %; Number of sleeping animals (Kunming mice [2]; [5]): 6; rate of sleeping (%) (Kunming mice [2]; [5]): 60** %; Number of sleeping animals (Kunming mice [2]; [6]): 8; rate of sleeping (%) (Kunming mice [2]; [6]): 80*** %; duration of sleep (Kunming mice [3]; [7]): 21.52 ± 16.93 min; time to sleep (Kunming mice [3]; [7]): 5.40 ± 1.83 min; duration of sleep (Kunming mice [3]; [8]): 29.13 ± 26.44 min; time to sleep (Kunming mice [3]; [8]): 5.05 ± 1.73 min; duration of sleep (Kunming mice [3]; [9]): 66.82 ± 33.63 min; time to sleep (Kunming mice [3]; [9]): 3.21 ± 1.32 min

**Q.** With `CCCc1ccc(C2CC(=O)c3c(O)cc([N+](=O)[O-])cc3O2)cc1OC` (stereo not drawn) [Example 61] as the compound, how does the “Times of activities in 1 h” value (Kunming mice [1]; 25 mg/kg) read?
**A.** 317.3 ± 50.1 /10 min

**Q.** What about the “Times of activities in 2 h” value (Kunming mice [1]; 25 mg/kg) of the same compound?
**A.** 289.4 ± 40.2 /10 min

**Q.** And the “Times of activities in 24 h” value (Kunming mice [1]; 25 mg/kg)?
**A.** 301.9 ± 77.5 /10 min

**Q.** What about the “Times of activities in 1 h” value (Kunming mice [1]; 50 mg/kg) of the same compound?
**A.** 295.1 ± 41.9 /10 min

**Q.** What about the “Times of activities in 2 h” value (Kunming mice [1]; 50 mg/kg) of the same compound?
**A.** 250.7 ± 42.8 /10 min

**Q.** And the “Times of activities in 24 h” value (Kunming mice [1]; 50 mg/kg)?
**A.** 300.2 ± 91.3 /10 min

**Q.** And the “Times of activities in 1 h” value (Kunming mice [1]; 100 mg/kg)?
**A.** 287.1 ± 45.9 /10 min

**Q.** And the “Times of activities in 2 h” value (Kunming mice [1]; 100 mg/kg)?
**A.** 221.5 ± 45.8 /10 min

**Q.** What about the “Times of activities in 24 h” value (Kunming mice [1]; 100 mg/kg) of the same compound?
**A.** 317.9 ± 80.3 /10 min

**Q.** And the “Number of sleeping animals” value (Kunming mice [2]; [4])?
**A.** 5

**Q.** What about the “rate of sleeping (%)” value (Kunming mice [2]; [4]) of the same compound?
**A.** 50** %

**Q.** And the “Number of sleeping animals” value (Kunming mice [2]; [5])?
**A.** 6

**Q.** And the “rate of sleeping (%)” value (Kunming mice [2]; [5])?
**A.** 60** %

**Q.** And the “Number of sleeping animals” value (Kunming mice [2]; [6])?
**A.** 8

**Q.** And the “rate of sleeping (%)” value (Kunming mice [2]; [6])?
**A.** 80*** %

**Q.** What about the duration of sleep (Kunming mice [3]; [7]) of the same compound?
**A.** 38.44 ± 15.12 min

**Q.** And the time to sleep (Kunming mice [3]; [7])?
**A.** 4.42 ± 1.43 min

**Q.** What about the duration of sleep (Kunming mice [3]; [8]) of the same compound?
**A.** 58.53 ± 27.42 min

**Q.** And the time to sleep (Kunming mice [3]; [8])?
**A.** 3.92 ± 1.31 min

**Q.** What about the duration of sleep (Kunming mice [3]; [9]) of the same compound?
**A.** 58.47 ± 24.40 min

**Q.** What about the time to sleep (Kunming mice [3]; [9]) of the same compound?
**A.** 3.79 ± 1.44 min
